Assay results reported in patent publication US6656927B1, “Ip3 receptor ligands” (Daiichi Pharmaceutical., Ltd., priority 1999, dated 2003).

How the values were obtained:
[1] = target: T1, IP3 binding domain (IBD, amino acid residues 1-885) of human IP3 receptor type 1 (Homo sapiens, UniProt Q14643); experiment: Surface plasmon resonance competitive binding assay on Compound 1-immobilized sensor tip; conditions: for Kd: SPR competitive assay, Compound 2b re-assayed at IBD 1.76 nM; for Kd / binding of IBD to a Compound 1-immobilized tip: IBD 52.8 nM; for binding of IBD to a Compound 1-immobilized tip: competitive assay, FIG. 1B; for affinity relative to that of IP3: ratio of affinity to IBD versus IP3 (Table 1); for non-specific binding to the IP3 receptor in the competitive assay: IBD 1.76 nM, FIG. 1C
T1 construct: glutathione S-transferase (GST), joined by linker Leu-Val-Pro-Arg-Gly-Ser (N); His tag, joined by linker Leu-Val-Pro-Arg-Gly-Ser (C); made in house; host or cells: Escherichia coli BL-21 (DE3), vector pGEX2T
Source text: (1) Expression and Purification of Human IP3 Receptor Type 1
The IP3 binding domain (IBD, amino acid residues 1-885, Mignery, G. A., et al., EMBO J., 9, 3893, 1990) of human IP3 receptor type 1 (Yamada, N., et al., Biochem. J., 302, 781, 1994) was subcloned in pGEX2T (Amersham Pharmacia) for expression in bacteria. The N-terminus of IBD was fused to glutathione S-transferase using a linker sequence Leu-Val-Pro-Arg-Gly-Ser, whilst the C-terminus of IBD was labeled at His using a linker sequence Leu-Val-Pro-Arg-Gly-Ser. The protein was expressed in Escherichia coli BL-21 (DE3), and a recombinant protein was purified by using a resin on which Ni-NTA was immobilized (Amersham Pharmacia) and a HiTrap NHS-activated affinity column (Amersham Pharmacia) to which Compound 1 was bound. The purity of protein was calculated as 22% based on the result from SDS-PAGE.
(2) Measurement of Surface Plasmon Resonance
Surface plasmon resonance (SPR) was measured by using BIAcore 2000 (Amersham Pharmacia). After activation with NHS and EDC, 10 mM of Compound 1 in 100 mM borate buffer (pH 8.5) was bound to the surface of CM5 sensor tip, and inactivated with ethanolamine. In order to determine dissociation constants of IP3, Compound 1, Compound 2a, and Compound 2b, IBD purified beforehand was dissolved in a mobile phase buffer (10 mM HEPES, 150 mM NaCl, 3.4 mM EDTA and 0.005% Tween20, pH 7.4) together with each of the compounds. After each sample was injected, the tip surface was regenerated with 100 mM NaOH.
IBD bound to the tip in a concentration-dependent manner, however, non-specific binding with BSA (or glutathione S-transferase) was not observed. […] In order to determine affinity of IP3, Compound 1, Compound 2a and Compound 2b to IBD, a competitive assay was performed as follows. IBD (52.8 nM) was mixed with each of the aforementioned compounds at various concentrations. When the mixture was introduced onto the tip, a compound that competed with Compound 1 was […] (FIG. 1B). SPR obtained from this assay was applied to the equation to calculate dissociation constant (Kd) of each compound.
(3) Calculation of Dissociation Constants
For calculation of Kd of each compound, the resulting data plotted in FIGS. 1B and 1C were applied to the formula: 100[1−[X+Y+Kd−{X^2+2X (Kd−Y)+(Kd+Y)^2}^½]/2Y] wherein X and Y are a concentration of each compound and IBD concentration, respectively. […] Therefore, the IBD concentration was lowered to 1.76 nM, and the competitive assay for Compound 2b was performed again (FIG. 1C). The binding assay was carried out under a light condition and under a dark condition to verify that the binding was not affected by light.

[2] = system: IP3 receptor; experiment: Denaturation of the IP3 receptor by light irradiation: IP3-induced Ca2+ releasing activity in smooth muscle tissue specimen; conditions: guinea pig portal vein smooth muscle, 1 μM compound, 1 μM IP3, FIG. 2C
Description: (1) Preparation of a Tissue Specimen
A strip of smooth muscle tissue prepared from a portal vein of male guinea pigs (weight 200-300 g) was fixed on a stainless steel wire to prepare a tissue specimen.
(2) Measurement of Ca^2+ Releasing Activity
The above specimen was incubated at 35° C. for 3.5 hours in a 40 μM solution of mag-fura-2 AM (Molecular Probes) as a Ca^2+ fluorescent indicator to have the mag-fura-2 AM taken up by the specimen. Subsequently, the specimen was incubated at 35° C. for 1.5 to 2 hours in a 40-60 μM solution of β-escin as a surfactant to remove the mag-fura-2 AM present other than in intracellular organelles.
The specimen was inserted into a glass capillary, and then initial change of fluorescence intensity ratio (fluorescence intensity at Ex. 340 nm, Em.480 nm/fluorescence intensity at Ex. 375 nm, Em. 480 nm, i.e., releasing rate), at addition of various solutions to the specimen, was fitted to an exponential curve to obtain a value as Ca^2+ releasing activity. As the fluorescence photometer, CAF-110 (JASCO) was used. […]
The tissue specimen prepared in the above (1) was added with 1 μM IP3, and its Ca^2+ releasing activity was measured (before irradiation). This specimen was removed from a fluorescence photometer after the measurement, and the inside of a capillary was filled with 1 μM solution of Compound 2b. […]

T1 sequence (Q14643 1-885 isoform Q14643-4): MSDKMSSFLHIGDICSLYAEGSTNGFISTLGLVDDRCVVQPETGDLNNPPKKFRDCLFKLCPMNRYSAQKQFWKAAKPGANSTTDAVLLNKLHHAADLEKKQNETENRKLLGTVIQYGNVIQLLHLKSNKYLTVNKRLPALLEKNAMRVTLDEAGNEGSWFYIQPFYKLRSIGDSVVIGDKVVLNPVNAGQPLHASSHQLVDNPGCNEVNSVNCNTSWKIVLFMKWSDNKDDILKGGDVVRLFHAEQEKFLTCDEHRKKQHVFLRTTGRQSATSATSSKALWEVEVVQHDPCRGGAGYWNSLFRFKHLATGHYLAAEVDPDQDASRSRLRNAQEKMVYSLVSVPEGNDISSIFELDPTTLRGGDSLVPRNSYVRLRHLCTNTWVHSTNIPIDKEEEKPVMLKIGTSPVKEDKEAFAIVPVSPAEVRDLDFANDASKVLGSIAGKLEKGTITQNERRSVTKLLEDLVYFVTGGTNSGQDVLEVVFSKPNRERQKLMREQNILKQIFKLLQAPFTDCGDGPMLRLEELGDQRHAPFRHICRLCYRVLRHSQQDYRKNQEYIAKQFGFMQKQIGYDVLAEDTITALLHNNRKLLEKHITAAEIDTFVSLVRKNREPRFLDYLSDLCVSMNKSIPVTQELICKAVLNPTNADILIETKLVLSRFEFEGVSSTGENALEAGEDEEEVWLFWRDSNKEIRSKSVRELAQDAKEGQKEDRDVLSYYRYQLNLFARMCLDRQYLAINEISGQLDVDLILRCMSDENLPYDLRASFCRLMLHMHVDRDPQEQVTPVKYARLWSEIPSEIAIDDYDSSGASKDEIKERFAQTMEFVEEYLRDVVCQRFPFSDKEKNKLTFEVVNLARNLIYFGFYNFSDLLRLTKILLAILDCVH

Kd [1]	binding of IBD to a Compound 1-immobilized tip [1]	affinity relative to that of IP3 [1]	non-specific binding to the IP3 receptor in the competitive assay [1]	Ca2+ releasing activity induced by IP3, addition of compound only (no laser irradiation) [2]	Ca2+ releasing activity induced by IP3, addition of compound and laser irradiation ([2]; 635 nm laser 3 minutes)	Compound
1100 nM	inhibited	about ⅙				NCCCOP(=O)(O)O[C@@H]1[C@H](O)[C@H](O)[C@@H](OP(=O)(O)O)[C@H](OP(=O)(O)O)[C@H]1O [Compound 1]
1.17 nM	inhibited	167 fold	specifically bound to the IP3 receptor	not reduced	remarkably reduced	CN(C)c1ccc(C(=C2C=CC(=[N+](C)C)C=C2)c2ccc(C(=O)NCCCOP(=O)(O)O[C@@H]3[C@H](O)[C@H](O)[C@@H](OP(=O)(O)O)[C@H](OP(=O)(O)O)[C@H]3O)cc2)cc1 [Compound 2b]
195 nM	inhibited					O=P(O)(O)O[C@@H]1[C@H](O)[C@H](O)[C@@H](OP(=O)(O)O)[C@H](OP(=O)(O)O)[C@H]1O [IP3, D-Myo-inositol-1,4,5-trisphosphate]
			non-specific binding was not observed			carboxymalachite green
